Patent US20100099714A1, “AMPA and NMDA Receptor Antagonists for Neurodegenerative Diseases” (Eisai R&D Management Co., Ltd., priority 2007, published 2010)

Experiments:
Cortical cell cultures = assay: NMDA and kainate-induced toxicity, MTT assay of cell viability; type: cell-based, rat; conditions: for protection of neuron from excitotoxicity induced by combination treatment with kainate and NMDA: 100 μM NMDA and 100 μM kainate for 24 h, monotherapy, FIG. 1A, B
Protocol: Cortical cell cultures were prepared from fetal rats of the Wistar strain (gestational age of 17 to 19 days, Charles River Japan, Kanagawa, Japan). The cortex was dissected and kept in Neurobasal medium (Invitrogen Corp., Carlsbad, Calif., USA) containing 2% B27 supplement (Invitrogen), 25 μM 2-mercaptoethanol (Wako), 0.5 mM L-glutamine (Invitrogen) and ×1/100 volume of antibiotic-antimycotic (Invitrogen), then incubated at 37° C. for 30 min in Ca^2+/Mg^2+ free Hank's balanced salt solution (MSS; 10 mM HEPES, pH 7.3) containing 0.25% trypsin (Invitrogen) and 0.2 mg/ml deoxyribonuclease (DNase) (Sigma). The cortical tissues were dissociated to single cells by gentle trituration. The cell suspension was centrifuged at 310×g for 3 min and the resulting pellets were resuspended in the medium described above.
The cells were plated at an initial cell density of 5×10^5 cells/cm^2 in poly-L-lysine (Sigma)-coated 96-well plates. The cells were cultured in a CO2 incubator (5% (v/v), at 37° C. in the Neurobasal medium described above for 7 days, and cultured following 4 days in culture medium without antioxidant B27 supplement and 2-mercaptoethanol. The cultures were exposed to 100 μM of N-methyl-D-aspartate (NMDA)(Sigma) and 100 μM of kainate (Sigma) for 24 h at 37° C. The cells were treated with perampanel (0.03, 0.3, 3 or 30 μM) and memantine HCl (0.1, 1, 10 or 100 μM) for 24 h before and during the exposure to these agonists. In the combination experiment, perampanel at […] or memantine at 10 μM or its combination was used.
Viability of cells grown in 96-well plates was measured by 3-[4,5-dimethylthylthiazol-2-yl]-2,5-diphenyltetrazolium bromide (MTT) assay. The 10 μl of 8 mg/ml MTT (Sigma) solution in D-PBS(−) (Dulbecco's phosphate-buffered saline, Sigma) was added to each well. During 10 min incubation at 37° C., the active dehydrogenase in viable mitochondria reduces the tetrazolium ring of MTT, forming a blue-colored precipitate. The cells were lysed and the precipitate was dissolved in […] of MTT solubilizing buffer containing 20% sodium dodecyl sulfate (SDS: Wako) in 50% N,N-dimethyl formamide at pH 4.7, and quantified spectrophotometrically at 550-690 nm.
Wells without cells, containing only the medium and MTT solution, were measured to obtain the background value, which was subtracted from measured values at 550-690 nm, as follows: % of Recovery=(sample−NMDA/Kainate treated control)/(non-treated control−NMDA/Kainate treated control)×100.
The data were analyzed with one-way analysis of variance (ANOVA) followed by Dunnett's multiple comparison test using the software package SAS ver. 8.2 (SAS Institute Japan Ltd., Tokyo, Japan).

[1] = Pharmacokinetic study of memantine, plasma concentration after single dose; type: in vivo, human; conditions: corresponds to 20-25 ng/ml at 20 mg single dose
Protocol: The efficacy of memantine in a variety of dementias has been shown in clinical trials. Memantine is considered to be a promising neuroprotective drug for the treatment of dementias, particularly Alzheimer's disease (Jain K K, Evaluation of memantine for neuroprotection in dementia. Expert Opin Investig Drugs 2000; 9(6): 1397-406.). Clinical dosage of mamentine is 20 mg/day. Maximal plasma concentration of memantine at 20 mg was at around 20-25 ng/ml after single dose treatment (Periclou A, et al., Pharmacokinetic study of memantine in healthy and renally impaired subjects. Clin Pharmacol Ther 2006; 79: 134-43.). This plasma concentration roughly correspond to 0.1 μM.

[2] = 20 mg, single dose treatment; cited from earlier work
[3] = 40 mg/day compared to 20 mg/day; cited from earlier work
Alzheimer's disease = Alzheimer's disease trials; cited from earlier work
[4] = clinically relevant concentration, roughly 0.1 μM

SMILES	protection of neuron from excitotoxicity induced by combination treatment with kainate and NMDA (Cortical cell cultures)	effect size at clinically relevant concentration (Cortical cell cultures; [4])	neuroprotective effect at clinically relevant concentration (Cortical cell cultures; [4])	plasma concentration converted to molar [1] [nM]	Maximal plasma concentration [2] [ng/mL]	risk of adverse event [3]	clinical effect (Alzheimer's disease)	shape of the neuroprotective effect over concentration (Cortical cell cultures; 100 μM NMDA and 100 μM kainate)
C[C@]12CC3C[C@](C)(C1)C[C@@](N)(C3)C2 [memantine, 1-amino-3,5-dimethyl-adamantane]	protected neuron from excitotoxicity	small and far below maximal effect	significant neuroprotective effect	~100	20 to 25	higher risk of adverse event	modest	–
N#Cc1ccccc1-c1cc(-c2ccccn2)cn(-c2ccccc2)c1=O [perampanel, 2-(2-oxo-1-phenyl-5-pyridin-2-yl-1,2-dihydropyridin-3-yl)benzonitrile]	protected neuron from excitotoxicity	–	–	–	–	–	–	ceiling on the effect from lowest concentration showing neuroprotection
